{"source": "patent US12637520B2", "about": "“Conjugation chemistry for catalytic antibody 38C2” (UNIVERSITY OF FLORIDA RESEARCH FOUNDATION, INCORPORATED, priority 2019, dated 2026)", "origin": "cited, not measured here", "biological_target": "open conformation of integrin α4β1 (Homo sapiens, UniProt P05556+P13612)", "sequence (P13612 34-1032)": "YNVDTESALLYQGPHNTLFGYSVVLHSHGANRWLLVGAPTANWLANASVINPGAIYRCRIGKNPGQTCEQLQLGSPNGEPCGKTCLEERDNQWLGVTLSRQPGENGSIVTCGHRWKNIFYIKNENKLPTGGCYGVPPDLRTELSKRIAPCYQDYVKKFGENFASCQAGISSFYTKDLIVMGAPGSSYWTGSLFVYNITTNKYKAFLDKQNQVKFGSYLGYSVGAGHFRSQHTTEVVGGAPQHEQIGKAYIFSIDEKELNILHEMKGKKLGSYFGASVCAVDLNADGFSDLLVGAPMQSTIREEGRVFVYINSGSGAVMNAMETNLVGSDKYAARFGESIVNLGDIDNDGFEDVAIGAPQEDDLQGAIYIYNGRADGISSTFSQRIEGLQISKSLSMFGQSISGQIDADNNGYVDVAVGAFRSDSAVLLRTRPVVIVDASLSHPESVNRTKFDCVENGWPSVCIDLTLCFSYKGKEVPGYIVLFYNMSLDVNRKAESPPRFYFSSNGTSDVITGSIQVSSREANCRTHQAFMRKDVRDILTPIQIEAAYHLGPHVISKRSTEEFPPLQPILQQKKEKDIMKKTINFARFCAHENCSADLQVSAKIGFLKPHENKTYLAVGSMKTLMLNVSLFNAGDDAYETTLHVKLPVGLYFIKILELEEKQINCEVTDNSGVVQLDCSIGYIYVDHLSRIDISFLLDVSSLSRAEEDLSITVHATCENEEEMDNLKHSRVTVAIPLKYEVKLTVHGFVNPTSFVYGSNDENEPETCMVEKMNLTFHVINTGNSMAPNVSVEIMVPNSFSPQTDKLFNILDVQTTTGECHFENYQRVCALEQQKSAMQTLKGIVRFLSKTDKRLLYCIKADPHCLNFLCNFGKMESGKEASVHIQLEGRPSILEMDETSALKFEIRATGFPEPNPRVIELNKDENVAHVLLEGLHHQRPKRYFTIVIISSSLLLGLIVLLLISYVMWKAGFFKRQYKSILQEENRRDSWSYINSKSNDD", "sequence (P05556 21-798)": "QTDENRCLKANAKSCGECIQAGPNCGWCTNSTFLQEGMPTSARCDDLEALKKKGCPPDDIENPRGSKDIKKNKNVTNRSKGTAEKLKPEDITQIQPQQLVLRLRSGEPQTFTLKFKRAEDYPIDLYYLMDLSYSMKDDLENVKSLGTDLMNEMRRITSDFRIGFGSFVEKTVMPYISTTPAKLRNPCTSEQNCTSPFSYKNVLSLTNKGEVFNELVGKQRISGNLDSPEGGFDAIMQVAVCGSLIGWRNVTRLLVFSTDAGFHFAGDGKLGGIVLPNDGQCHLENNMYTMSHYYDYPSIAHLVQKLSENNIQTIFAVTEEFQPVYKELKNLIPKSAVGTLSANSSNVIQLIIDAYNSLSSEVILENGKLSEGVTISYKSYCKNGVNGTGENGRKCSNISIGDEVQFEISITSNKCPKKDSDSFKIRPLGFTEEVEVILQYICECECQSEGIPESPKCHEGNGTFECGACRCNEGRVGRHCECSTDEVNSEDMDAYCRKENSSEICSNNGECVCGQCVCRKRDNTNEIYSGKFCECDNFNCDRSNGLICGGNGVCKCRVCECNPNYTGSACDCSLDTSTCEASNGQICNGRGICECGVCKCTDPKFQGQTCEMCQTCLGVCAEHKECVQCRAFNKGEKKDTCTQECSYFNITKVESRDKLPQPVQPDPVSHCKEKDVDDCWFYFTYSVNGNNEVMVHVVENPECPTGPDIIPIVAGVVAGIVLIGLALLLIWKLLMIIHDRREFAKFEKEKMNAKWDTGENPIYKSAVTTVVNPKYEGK", "settings": "cited from earlier work"}
{"smiles": "Cc1ccccc1NC(=O)Nc1ccc(CC(=O)N[C@@H](CCCCNC(=O)/C=C/c2cccnc2)C(=O)N[C@@H](CCCC(=O)O)C(=O)NC2(C(N)=O)CCCCC2)cc1", "note": "[LLP2A]", "values": [{"measurement": "affinity for open conformation of integrin α4β1", "result": "picomolar-affinity"}]}
